In article PMC7486443, “Generation of Phenothiazine with Potent Anti-TLK1 Activity for Prostate Cancer Therapy” (iScience, 2020) one finds remaining binding data, which are given here for 1 compound.

Some targets named below: ALK(C1156Y) (Homo sapiens, UniProt Q9UM73, C1156Y); CDK9 (Homo sapiens, UniProt P50750); CLK2 (Homo sapiens, UniProt P49760); CSNK1E (Homo sapiens, UniProt P49674); EGFR(G719C) (Homo sapiens, UniProt P00533, G719C); LATS1 (Homo sapiens, UniProt O95835); RIOK1 (Homo sapiens, UniProt Q9BRS2); TNIK (Homo sapiens, UniProt Q9UKE5).
Experiment in all cases: biochemical
Common to all, as to parameters: DiscoverX KINOMEscan scanMAX competition binding panel, single concentration, percent of control; remaining binding: dose or concentration left out as unconfirmed
Holding throughout (conditions): KINOMEscan binding, percent of control; read-out: Table S4_SCANMAX REPORT - related to Fig. 1 / Percent Control

Experiment [1] deals with T1, ABL1(Q252H)-nonphosphorylated (Homo sapiens, UniProt P00519, Q252H).
T1 construct: nonphosphorylated

The target of experiment [2] is EGFR(L747-S752del, P753S) (Homo sapiens, UniProt P00533, DEL747-752/P753S).
The next experiment addresses T2, HPK1 (Homo sapiens, UniProt Q92918).
T2 construct: gene MAP4K1

The next experiment addresses T3, IKK-alpha (Homo sapiens, UniProt O15111).
T3 construct: gene CHUK

The next experiment concerns the target T4, MEK1 (Homo sapiens, UniProt Q02750).
T4 construct: gene MAP2K1

In a further experiment the target is T5, PRP4 (Homo sapiens, UniProt Q13523).
T5 construct: gene PRPF4B

The target of experiment [3] is T6, RPS6KA5(Kin.Dom.1-N-terminal) (Homo sapiens, UniProt O75582).
T6 construct: Kin.Dom.1-N-terminal

In another experiment the target is T7, TRKA (Homo sapiens, UniProt P04629).
T7 construct: gene NTRK1
T7 sequence (P04629 whole entry): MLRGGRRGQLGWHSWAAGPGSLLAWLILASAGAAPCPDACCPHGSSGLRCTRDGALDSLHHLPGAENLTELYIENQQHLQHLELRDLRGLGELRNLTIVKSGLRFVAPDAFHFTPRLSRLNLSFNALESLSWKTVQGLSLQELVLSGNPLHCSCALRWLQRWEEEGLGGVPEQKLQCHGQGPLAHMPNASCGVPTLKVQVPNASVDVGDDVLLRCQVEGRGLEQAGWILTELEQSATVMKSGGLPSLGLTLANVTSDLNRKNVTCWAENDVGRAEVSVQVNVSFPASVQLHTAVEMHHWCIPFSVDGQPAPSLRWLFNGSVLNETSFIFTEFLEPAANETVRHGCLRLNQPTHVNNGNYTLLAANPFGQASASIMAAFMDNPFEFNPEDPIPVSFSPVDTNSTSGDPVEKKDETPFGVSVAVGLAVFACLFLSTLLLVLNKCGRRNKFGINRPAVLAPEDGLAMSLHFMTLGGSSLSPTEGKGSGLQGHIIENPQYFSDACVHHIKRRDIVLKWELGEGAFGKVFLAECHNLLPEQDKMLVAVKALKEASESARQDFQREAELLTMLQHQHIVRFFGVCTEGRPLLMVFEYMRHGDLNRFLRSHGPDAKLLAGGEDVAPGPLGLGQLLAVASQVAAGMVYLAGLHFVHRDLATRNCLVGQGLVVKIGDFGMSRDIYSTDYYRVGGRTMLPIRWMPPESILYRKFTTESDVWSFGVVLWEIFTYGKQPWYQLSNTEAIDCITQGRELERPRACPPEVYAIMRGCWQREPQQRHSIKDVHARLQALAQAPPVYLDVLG

Another experiment addresses T8, YSK1 (Homo sapiens, UniProt O00506).
T8 construct: gene STK25

A further experiment addresses T9, p38-delta (Homo sapiens, UniProt O15264).
T9 construct: gene MAPK13

Sequence of RIOK1 (Q9BRS2 whole entry): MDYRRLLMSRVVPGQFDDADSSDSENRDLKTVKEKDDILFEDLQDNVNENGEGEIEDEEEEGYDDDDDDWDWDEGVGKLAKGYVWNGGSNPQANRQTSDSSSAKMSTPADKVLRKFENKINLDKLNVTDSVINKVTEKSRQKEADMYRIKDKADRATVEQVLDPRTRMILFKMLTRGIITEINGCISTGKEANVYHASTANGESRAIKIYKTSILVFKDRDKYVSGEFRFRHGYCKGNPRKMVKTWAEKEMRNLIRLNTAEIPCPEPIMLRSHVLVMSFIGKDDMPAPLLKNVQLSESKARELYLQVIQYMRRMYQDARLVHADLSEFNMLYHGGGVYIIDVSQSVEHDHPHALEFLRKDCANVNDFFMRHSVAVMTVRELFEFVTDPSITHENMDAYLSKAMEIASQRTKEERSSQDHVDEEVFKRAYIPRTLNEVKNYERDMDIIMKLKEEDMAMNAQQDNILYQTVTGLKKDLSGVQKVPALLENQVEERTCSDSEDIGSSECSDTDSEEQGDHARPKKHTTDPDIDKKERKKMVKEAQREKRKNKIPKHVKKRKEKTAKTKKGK
Sequence of CLK2 (P49760 whole entry): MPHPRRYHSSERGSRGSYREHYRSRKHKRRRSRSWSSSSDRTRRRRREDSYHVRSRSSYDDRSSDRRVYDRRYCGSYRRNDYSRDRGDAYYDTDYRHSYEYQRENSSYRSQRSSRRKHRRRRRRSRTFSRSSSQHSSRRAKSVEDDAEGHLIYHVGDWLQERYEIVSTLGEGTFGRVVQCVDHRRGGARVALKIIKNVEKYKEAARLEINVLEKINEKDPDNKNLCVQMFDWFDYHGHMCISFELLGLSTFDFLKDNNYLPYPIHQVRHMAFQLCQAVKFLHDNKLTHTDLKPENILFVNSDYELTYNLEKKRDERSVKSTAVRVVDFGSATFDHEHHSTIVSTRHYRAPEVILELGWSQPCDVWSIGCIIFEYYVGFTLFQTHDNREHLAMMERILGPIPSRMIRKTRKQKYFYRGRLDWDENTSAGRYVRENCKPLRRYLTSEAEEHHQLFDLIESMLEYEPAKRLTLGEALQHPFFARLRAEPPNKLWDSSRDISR
Sequence of EGFR(G719C) (P00533 whole entry G719C): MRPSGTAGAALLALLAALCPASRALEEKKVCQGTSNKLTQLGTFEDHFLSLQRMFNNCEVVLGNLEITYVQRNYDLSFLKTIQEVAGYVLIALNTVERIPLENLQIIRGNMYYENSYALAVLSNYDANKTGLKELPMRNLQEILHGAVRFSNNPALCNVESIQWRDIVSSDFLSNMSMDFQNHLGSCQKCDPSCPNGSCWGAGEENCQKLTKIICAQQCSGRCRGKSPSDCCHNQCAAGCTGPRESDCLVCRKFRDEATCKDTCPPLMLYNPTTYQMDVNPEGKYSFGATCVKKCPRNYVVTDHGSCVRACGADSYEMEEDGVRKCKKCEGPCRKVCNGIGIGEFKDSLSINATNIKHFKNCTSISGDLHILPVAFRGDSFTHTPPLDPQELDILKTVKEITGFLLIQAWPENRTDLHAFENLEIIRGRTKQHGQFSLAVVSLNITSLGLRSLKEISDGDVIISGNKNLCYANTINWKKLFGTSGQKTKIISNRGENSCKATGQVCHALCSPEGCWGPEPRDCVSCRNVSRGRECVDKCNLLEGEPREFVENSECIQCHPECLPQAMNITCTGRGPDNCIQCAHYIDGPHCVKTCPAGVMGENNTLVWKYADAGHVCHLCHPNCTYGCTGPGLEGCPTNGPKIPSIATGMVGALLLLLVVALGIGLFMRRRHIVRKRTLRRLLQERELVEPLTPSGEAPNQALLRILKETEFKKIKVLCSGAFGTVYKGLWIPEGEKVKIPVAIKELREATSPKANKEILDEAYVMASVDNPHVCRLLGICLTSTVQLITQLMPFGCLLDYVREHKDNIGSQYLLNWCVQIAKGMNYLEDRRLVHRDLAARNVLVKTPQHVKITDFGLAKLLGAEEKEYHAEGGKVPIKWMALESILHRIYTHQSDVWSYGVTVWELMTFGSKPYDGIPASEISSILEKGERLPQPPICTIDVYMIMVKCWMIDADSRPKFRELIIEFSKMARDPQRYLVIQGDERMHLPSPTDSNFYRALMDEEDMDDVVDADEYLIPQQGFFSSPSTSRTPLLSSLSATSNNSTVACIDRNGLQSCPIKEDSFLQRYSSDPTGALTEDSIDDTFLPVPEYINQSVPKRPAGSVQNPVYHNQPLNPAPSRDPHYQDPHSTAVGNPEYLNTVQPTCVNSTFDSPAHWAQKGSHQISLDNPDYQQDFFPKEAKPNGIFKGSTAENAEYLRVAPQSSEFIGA
Sequence of CDK9 (P50750 whole entry): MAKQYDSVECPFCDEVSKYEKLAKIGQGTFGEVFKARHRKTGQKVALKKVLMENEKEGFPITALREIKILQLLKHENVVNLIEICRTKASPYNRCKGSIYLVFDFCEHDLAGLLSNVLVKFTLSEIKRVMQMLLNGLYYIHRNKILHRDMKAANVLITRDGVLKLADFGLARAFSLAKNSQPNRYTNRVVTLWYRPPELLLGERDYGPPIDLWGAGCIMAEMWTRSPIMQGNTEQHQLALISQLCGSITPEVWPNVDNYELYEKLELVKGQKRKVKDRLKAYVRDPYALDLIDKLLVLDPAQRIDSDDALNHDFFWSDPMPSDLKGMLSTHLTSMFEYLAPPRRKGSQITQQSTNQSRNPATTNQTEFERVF
T9 sequence (O15264 whole entry): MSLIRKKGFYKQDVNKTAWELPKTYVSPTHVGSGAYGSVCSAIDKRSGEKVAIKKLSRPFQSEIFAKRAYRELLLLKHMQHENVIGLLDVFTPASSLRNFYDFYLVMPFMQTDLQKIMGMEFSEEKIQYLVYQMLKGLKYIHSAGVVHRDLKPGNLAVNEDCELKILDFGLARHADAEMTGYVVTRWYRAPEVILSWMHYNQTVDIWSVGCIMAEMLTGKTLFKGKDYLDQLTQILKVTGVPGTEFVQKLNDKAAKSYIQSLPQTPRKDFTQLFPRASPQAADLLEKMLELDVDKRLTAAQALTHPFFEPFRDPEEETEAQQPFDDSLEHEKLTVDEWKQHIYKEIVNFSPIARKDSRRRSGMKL
Sequence of LATS1 (O95835 whole entry): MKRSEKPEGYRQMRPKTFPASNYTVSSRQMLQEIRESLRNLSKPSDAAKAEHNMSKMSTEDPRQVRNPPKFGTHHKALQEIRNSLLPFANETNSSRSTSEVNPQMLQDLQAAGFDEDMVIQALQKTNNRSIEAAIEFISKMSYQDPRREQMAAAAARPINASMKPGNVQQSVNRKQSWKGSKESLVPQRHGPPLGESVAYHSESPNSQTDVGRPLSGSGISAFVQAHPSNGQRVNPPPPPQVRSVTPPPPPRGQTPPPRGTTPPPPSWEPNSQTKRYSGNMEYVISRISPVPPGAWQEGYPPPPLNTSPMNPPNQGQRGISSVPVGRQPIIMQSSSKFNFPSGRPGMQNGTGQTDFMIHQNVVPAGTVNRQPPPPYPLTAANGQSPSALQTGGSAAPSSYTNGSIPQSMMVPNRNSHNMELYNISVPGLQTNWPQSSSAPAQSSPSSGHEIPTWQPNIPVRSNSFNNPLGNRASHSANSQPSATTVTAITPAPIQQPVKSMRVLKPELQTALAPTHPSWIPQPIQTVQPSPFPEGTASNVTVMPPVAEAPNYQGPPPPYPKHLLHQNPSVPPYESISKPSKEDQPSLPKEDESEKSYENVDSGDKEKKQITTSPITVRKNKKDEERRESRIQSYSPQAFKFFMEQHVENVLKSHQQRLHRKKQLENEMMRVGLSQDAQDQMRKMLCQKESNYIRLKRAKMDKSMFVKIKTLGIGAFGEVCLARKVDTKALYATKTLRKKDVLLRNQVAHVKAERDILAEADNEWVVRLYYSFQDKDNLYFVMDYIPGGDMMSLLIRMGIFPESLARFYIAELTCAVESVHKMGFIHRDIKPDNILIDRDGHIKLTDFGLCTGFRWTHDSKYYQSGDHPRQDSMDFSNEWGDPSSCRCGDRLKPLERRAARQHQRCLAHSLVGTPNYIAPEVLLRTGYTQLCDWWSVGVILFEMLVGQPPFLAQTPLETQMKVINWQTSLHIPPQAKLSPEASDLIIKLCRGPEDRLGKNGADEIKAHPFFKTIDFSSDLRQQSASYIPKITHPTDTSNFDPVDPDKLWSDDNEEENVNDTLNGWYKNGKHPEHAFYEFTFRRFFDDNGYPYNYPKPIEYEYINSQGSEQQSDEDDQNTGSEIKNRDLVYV

Take `c1ccc2c(c1)Sc1ccccc1N2CCN1CCOCC1` [J54]: the remaining binding in experiment [1] came to 78%; on ALK(C1156Y) it was 100%; at CDK9 it was 100%; at CLK2, 79%; at CSNK1E it was 100%; at EGFR(G719C), 100%. Besides, the remaining binding in experiment [2] is 92%; on HPK1, 100%; at IKK-alpha, 100%; on LATS1 it was 81%; at MEK1 it was 100%; on PRP4, 74%. Further, the remaining binding on RIOK1 worked out at 59%; in experiment [3] it was 100%; at TNIK, 98%; at TRKA, 82%; on YSK1, 97%; at p38-delta, 100%.
